Assay results: patent US6927213B2, “Cationic cholesteryl derivatives containing cyclic polar groups” (University of Pittsburgh, priority 1996, dated 2005)
“Also recorded” adds a separate entry of the source. Where two headings read alike, the source gives them in different places.

How the values were obtained:
CHO cells [1] = assay: Transfection of CHO cells with pCMV-Luc DNA:lipid complexes, luciferase activity; assay type: cell-based, Chinese Hamster; details: for luciferase activity (transfection activity): 1 μg pCMV-Luc DNA, liposomes DOPE:cationic lipid 1:1 mol:mol, absence of serum, 36 hours after transfection
CHO cells [2] = assay: Toxicity of lipids: protein per well 36 hours after transfection, CHO cells
CHO cells [3] = tested on: CHO cells
293 cells = assay: Transfection of 293 cells with pCMV-Luc DNA:lipid complexes, luciferase activity; assay type: cell-based, human; details: DOPE:lipid 1:1 mol:mol, FIG. 7
Experimental: (§1) 2 μmol of Lipid dissolved in chloroform was transferred to a test tube. A solution of DOPE (2 umol) in chloroform was then added to this test tube. The chloroform was evaporated by passing a stream of nitrogen through the test tube to obtain a thin film of at the bottom of the test tube. Further drying was done in a desiccator under high vacuum for 30 minutes. 2 ml of distilled water was then added to the test tubes. The test tubes were stoppered and vortexed for one minute followed by sonication until the size of the particles was between 100 to 200 nm. The size of the particles was measured by Coulter particle size analyzer.
(§2) CHO, 293 and BL6 cells were obtained from the American Type Culture Collection (ATCC). Chinese Hamster Ovarian (“CHO”) cells were maintained in F-12 nutrient medium supplemented with 10% fetal bovine serum, antibiotics (1% penicillin-streptomycin) and 1% glutamine; human embryonic kidney 293 cells and murine melanoma BL6 cells were cultured in DMEM medium supplemented with 10% fetal bovine serum, antibiotics (1% penicillin-streptomycin) and 1% glutamine. […]
(§3) Luciferase activity was assayed by measuring the luminescence obtained after adding the substrate (Promega) to in aliquot of lysate. This luminescence was measured in a luminometer for 25 seconds.

BL6 cells [4] = assay: Transfection of BL6 cells with pCMV-Luc DNA:lipid complexes, luciferase activity; assay type: cell-based, murine; details: DOPE:lipid 1:1 mol:mol, FIG. 8
Experimental: as §1, §2, §3

HeLa = assay: Transfection of HeLa cells; assay type: cell-based; details: data not shown
Experimental: (§4) Lipid 5 was further compared with DC-Chol by transfecting BL6 cells with lipid 5- or DC-Chol-containing DNA:lipid complexes (FIGS. 7 and 8 respectively). […] Lipid 5 was also tested in several cell lines including HeLa, Siha and Caski which are somewhat difficult to transfect when compared with CHO or 293 cells.

Siha = assay: Transfection of Siha cells; assay type: cell-based; details: data not shown
Experimental: as §4

Caski = assay: Transfection of Caski cells; assay type: cell-based; details: data not shown
Experimental: as §4

BL6 cells [5] = assay: Toxicity of lipids: protein per well 36 hours after transfection, BL6 cells; assay type: cell-based, murine; details: DOPE:lipid 1:1, FIG. 10
Experimental: Toxicity was assayed by measuring the amount of protein remaining in each well 36 hours after treatment with the indicated amount of liposome.
The toxicity of lipids was assayed by measuring the protein concentration in each well by Coomassie blue reagent (Píerce) 36 hours after transfection. Greater concentrations of protein per well indicated less toxicity of the tested lipids.
FIGS. 9 and 10 show the toxicity of lipid 5 compared to that of DC-Chol in CHO and BL6 cells respectively, where toxicity was assessed by measuring the amount of protein in each well after transfection of cells with DNA:lipid complexes formulated by mixing DNA and liposomes containing DOPE and DC-Chol or DOPE and lipids.

[6] = Stability of liposomes, retention of diameter over time; assay type: physicochemical; details: all lipid 5:DOPE ratios shown in FIG. 11
Experimental: as §1
The X axis of FIG. 11 refers to the total liposomal lipid mixed with 1 μg pCMV-Luc DNA:lipid complexes.

CHO cells [7] = assay: Serum sensitivity of transfection of CHO cells; assay type: cell-based, Chinese Hamster; details: 1 μg DNA, 10% serum
Mice = assay: In vivo transfection with pCMV-Luc DNA:lipid complexes; details: intratumoral or intravenous, 30 μg pCMV-Luc DNA with 30 nmols liposomal lipid (1:1 lipid 5:DOPE), 1-5 days
Experimental: Mice are injected intratumorally or intravenously with 50 μl of solution containing pCMV-Luc DNA (30 μg) complexed with 30 nmols of liposomal lipid (1:1 mol/mol lipid 5:DOPE). Animals are sacrificed 1-5 days later and extracts from tumor tissue (intratumor injection) or lung, liver and blood (intravenous injection) are assayed for luciferase activity and protein levels.

Compound: CC(C)CCC[C@@H](C)[C@H]1CC[C@H]2[C@@H]3CC=C4C[C@@H](OC(=O)NCCN5CCOCC5)CC[C@]4(C)[C@H]3CC[C@]12C [lipid 3, {N-2-ethylamino[(3′-β-cholesteryl)carbamoyl]}morpholine]
- luciferase activity (transfection activity) (CHO cells [1]): low activity

Compound: pyridyl (ethyl) carbamoyl cholesteryl [lipid PY]
- luciferase activity (transfection activity) (CHO cells [1]): much less active
- toxicity relative to DC-Chol (CHO cells [2]): comparable toxicity to DC-Chol

Compound: CC(C)CCC[C@@H](C)[C@H]1CC[C@H]2[C@@H]3CC=C4C[C@@H](OC(=O)NCCN(C)C)CC[C@]4(C)[C@H]3CC[C@]12C [DC-Chol, 3β [N-(N′,N′-dimethylaminoethane)carbamoyl] cholesterol, reference compound]
- luciferase activity (transfection activity) (CHO cells [1]): lipid 5>DC-Chol>lipid 4
- appearance of transfected cells observed under microscope (CHO cells [2]; cell line (CHO or BL6) not specified, data not shown): some necrosis

Compound: CC(C)CCC[C@@H](C)[C@H]1CC[C@H]2[C@@H]3CC=C4C[C@@H](OC(=O)NCCN5CCCC5)CC[C@]4(C)[C@H]3CC[C@]12C [lipid 6, {N-2-ethylamino[(3′-β-cholesteryl)carbamoyl]}pyrrolidine]
- luciferase activity (transfection activity) (CHO cells [1]): less active than DC-Chol
- toxicity relative to DC-Chol (CHO cells [3]): less toxic than DC-Chol

Compound: CC(C)CCC[C@@H](C)[C@H]1CC[C@H]2[C@@H]3CC=C4C[C@@H](OC(=O)NCCN5CCNCC5)CC[C@]4(C)[C@H]3CC[C@]12C [lipid 2, 4{N-2-ethylamino[(3′-β-cholesteryl)carbamoyl]}piperazine]
- luciferase activity (transfection activity) (CHO cells [1]): low activity

Compound: CC(C)CCC[C@@H](C)[C@H]1CC[C@H]2[C@@H]3CC=C4C[C@@H](OC(=O)NCCCN5CCOCC5)CC[C@]4(C)[C@H]3CC[C@]12C [lipid 4]
- luciferase activity (transfection activity) (CHO cells [1]): lipid 5>DC-Chol>lipid 4; also recorded: reasonable activity

Compound: CC(C)CCC[C@@H](C)[C@H]1CC[C@H]2[C@@H]3CC=C4C[C@@H](OC(=O)NCCN5CCCCC5)CC[C@]4(C)[C@H]3CC[C@]12C [lipid 7, {N-2-ethylamino[(3′-β-cholesteryl)carbamoyl]}piperidine]
- luciferase activity (transfection activity) (CHO cells [1]): less active than DC-Chol
- toxicity relative to DC-Chol (CHO cells [3]): less toxic than DC-Chol

Compound: (imidazole) propyl carbamoyl cholesteryl [lipid IM]
- luciferase activity (transfection activity) (CHO cells [1]): slightly less active than DC-Chol

Compound: CC(C)CCC[C@@H](C)[C@H]1CC[C@H]2[C@@H]3CC=C4C[C@@H](OC(=O)NN5CCN(C)CC5)CC[C@]4(C)[C@H]3CC[C@]12C [lipid 5, N-methyl{4-N-amino[(3′-β-cholesteryl)carbamoyl]}piperazine]
- luciferase activity (transfection activity) (CHO cells [1]): lipid 5>DC-Chol>lipid 4; also recorded: high activity
- transfection activity (luciferase) (CHO cells [1]; lipid 5:DOPE ratio of 2:8, FIG. 11): less activity
- transfection activity (luciferase) (CHO cells [1]; lipid 5:DOPE ratio of 4:6, FIG. 11): very similar transfection activities
- transfection activity (luciferase) (CHO cells [1]; lipid 5:DOPE ratio of 5:5, FIG. 11): very similar transfection activities
- transfection activity (luciferase) (CHO cells [1]; lipid 5:DOPE ratio of 6:4, FIG. 11): highest activity among all complexes
- transfection activity (luciferase) (CHO cells [1]; lipid 5:DOPE ratio of 8:2, FIG. 11): less activity
- luciferase activity (transfection activity) (293 cells): almost equally as active as DC-Chol
- luciferase activity (transfection activity) (BL6 cells [4]): almost equally as active as DC-Chol
- ability to transfect cells (HeLa): slightly better than DC-Chol
- ability to transfect cells (Siha): slightly better than DC-Chol
- ability to transfect cells (Caski): slightly better than DC-Chol
- toxicity: amount of protein in each well after transfection (BL6 cells [5]): more protein than cells transfected with DC-Chol-containing complex
- liposome stability (retention of diameter over time) [6]: stable liposomes
- activity retained relative to the 0% serum complexes (CHO cells [7]; 5 nmol lipid 5 (1:1 with DOPE)): approximately 40%
- activity retained relative to the 0% serum complexes (CHO cells [7]; 10 nmol lipid 5 (1:1 with DOPE)): approximately 40%
- activity retained relative to the 0% serum complexes (CHO cells [7]; 20 nmol lipid 5 (1:1 with DOPE)): 10%
- in vivo transfection activity (luciferase in tissue extracts) (Mice): exhibit in vivo transfection activity
- appearance of transfected cells observed under microscope (CHO cells [3]): healthy
- toxicity relative to DC-Chol (CHO cells [2]): reduced toxicity
- toxicity: amount of protein in each well after transfection (CHO cells [2]; CHO cells, DOPE:lipid 1:1, 36 hours, FIG. 9): more protein than cells transfected with DC-Chol-containing complex
